# Data from paper PMC10623575, “Discovery of Potent and Selective CB2 Agonists Utilizing a Function-Based Computational Screening Protocol” (ACS Chemical Neuroscience, 2023).
# Like-named read-outs stand apart in the source and are kept apart here.
# How the values were obtained:
# CB1 receptor = CB1 receptor (Homo sapiens, UniProt P21554); test: Calcium mobilization assay, agonist mode, CHO expressing CB1 and Gα16; format: cell-based; settings: agonist activity, CHO expressing CB1, mean ± SEM; read-out: CB1 EC50
# Protocol: (§1) Chinese hamster ovarian (CHO) cells collected from the American Type Culture Collection were maintained in Ham’s F-12K (Kaighn’s) supplemented with 100 mg/L streptomycin, 100 mg/L penicillin, and 10% fetal bovine serum (FBS) in a humidified atmosphere of 5% CO2 at 37 °C. CHO cells were co-transfected with plasmids encoding CB1 or CB2 and Gα16 by electroporation. To establish stable cell lines, transfected cells were seeded on 10 cm dishes with 40 μg/mL blasticidin and 1 mg/mL G418 in culture medium after 24 h. The selection medium was substituted once every 3 days until colonies formed. A solitary colony was obtained, propagated, and assessed using a calcium mobilization assay to verify the function and expression of the transfected genes.
# (§2) 3 × 10^4 cells/well were employed to seed cells onto 96-well plates, which were subsequently incubated throughout the night. […] For antagonist mode, the extra dye was washed out and 50 μL of HBSS with test compounds, DMSO (negative control), or AM630 (positive control) was introduced. […] To be noticed, each experiment has been independently replicated three times, with three repetitions and eight gradients each time.
# (§3) The collected data were processed with GraphPad Prism software (GraphPad). […] Means ± SEM were computed utilizing this software. The analyses were evaluated by the Student t test. When the p value is smaller than 0.05, the result is statistically significant.
# CB2 receptor = target: T1, CB2 receptor (Homo sapiens, UniProt P34972); test: Calcium mobilization assay, agonist mode, CHO expressing CB2 and Gα16; format: cell-based; settings: for SI, selectivity index for the CB2, SI = EC50(CB1)/EC50(CB2): agonist mode
# T1 construct: expressed in transfected cells
# Protocol: as §1, §2, §3
# [1] = agonist activity, CHO expressing CB2, three independent assays, mean ± SEM, read-out: CB2 EC50
# [2] = single independent experiment, replicate 1, read-out: CB2 agonist(μM) replicate 1
# [3] = single independent experiment, replicate 2, read-out: CB2 agonist(μM) replicate 2
# [4] = single independent experiment, replicate 3, read-out: CB2 agonist(μM) replicate3
# T1 sequence (P34972 whole entry): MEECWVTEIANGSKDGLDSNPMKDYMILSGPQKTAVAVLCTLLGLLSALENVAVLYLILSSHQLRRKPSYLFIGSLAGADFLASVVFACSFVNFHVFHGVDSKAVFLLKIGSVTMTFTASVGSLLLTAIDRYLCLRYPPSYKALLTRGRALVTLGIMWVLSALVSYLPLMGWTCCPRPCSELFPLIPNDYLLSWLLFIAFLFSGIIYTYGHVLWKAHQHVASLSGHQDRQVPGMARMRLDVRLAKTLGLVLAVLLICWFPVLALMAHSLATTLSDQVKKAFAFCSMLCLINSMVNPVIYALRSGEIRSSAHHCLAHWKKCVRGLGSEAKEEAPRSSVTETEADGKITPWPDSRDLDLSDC
# CB1 receptor, sequence (P21554 whole entry): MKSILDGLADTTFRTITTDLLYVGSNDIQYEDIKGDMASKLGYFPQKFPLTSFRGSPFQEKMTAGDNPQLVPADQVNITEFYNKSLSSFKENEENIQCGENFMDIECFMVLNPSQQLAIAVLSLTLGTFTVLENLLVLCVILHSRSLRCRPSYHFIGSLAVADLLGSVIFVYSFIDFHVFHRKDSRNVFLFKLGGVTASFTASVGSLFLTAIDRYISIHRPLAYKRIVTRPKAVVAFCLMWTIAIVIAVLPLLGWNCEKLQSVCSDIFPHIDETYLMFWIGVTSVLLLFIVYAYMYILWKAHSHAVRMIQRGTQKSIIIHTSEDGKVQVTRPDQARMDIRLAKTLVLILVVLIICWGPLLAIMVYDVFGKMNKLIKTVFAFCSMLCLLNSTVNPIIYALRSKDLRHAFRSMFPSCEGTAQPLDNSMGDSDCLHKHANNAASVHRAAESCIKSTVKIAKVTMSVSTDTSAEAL
Structure (SMILES),EC50 (CB1 receptor) [µM],EC50 (CB2 receptor; [1]) [µM],"SI, selectivity index for the CB2, SI = EC50(CB1)/EC50(CB2) (CB2 receptor)",EC50 (CB2 receptor; [2]) [µM],EC50 (CB2 receptor; [3]) [µM],EC50 (CB2 receptor; [4]) [µM]
"CC(C)N1C(=O)SC(=Cc2ccccc2OC(=O)C2CC2)C1=O [Compound 22, 2-((3-Isopropyl-2,4-dioxothiazolidin-5-ylidene)methyl)phenyl Cyclopropane Carboxylate]",> 10,4.12 ± 1.31,>2,2.19,6.61,3.56
"CC(C)N1C(=O)SC(=Cc2ccccc2OC(=O)C2CCCCCC2)C1=O [Compound 23, 2-((3-Isopropyl-2,4-dioxothiazolidin-5-ylidene)methyl)phenyl Cycloheptane Carboxylate]",> 10,0.82 ± 0.41,>12,0.225,0.638,1.6
"CC(C)N1C(=O)SC(=Cc2ccccc2OC(=O)c2ccc(Cl)nc2)C1=O [Compound 24, 2-((3-Isopropyl-2,4-dioxothiazolidin-5-ylidene)methyl)phenyl 6-Chloronico Tinate]",> 10,3.93 ± 1.97,>2,7.84,2.4,1.54
"CC(C)N1C(=O)SC(=Cc2cccc(OCc3ccccc3C#N)c2)C1=O [Compound 25, 2-((3-((3-Isopropyl-2,4-dioxothiazolidin-5-ylidene)methyl)phenoxy)methyl) Benzonitrile]",> 10,> 10,,,,
"CC(C)CN1C(=O)SC(=Cc2cccc(OCc3ccccc3C#N)c2)C1=O [Compound 26, 2-((3-((3-Isobutyl-2,4-dioxothiazolidin-5-ylidene)methyl)phenoxy)methyl) Benzonitrile]",> 10,> 10,,,,
"N#Cc1ccccc1COc1cccc(C=C2SC(=O)N(C3CCCC3)C2=O)c1 [Compound 27, 2-((3-((3-Cyclopentyl-2,4-dioxothiazolidin-5-ylidene)methyl)phenoxy)methyl) Benzonitrile]",> 10,> 10,,,,
"COc1ccc(C=C2SC(=O)N(C(C)C)C2=O)cc1OC(=O)c1cccc(Br)c1 [Compound 28, 5-((3-Isopropyl-2,4-dioxothiazolidin-5-ylidene)methyl)-2-methoxyphenyl 3-Bromobenzoate]",> 10,2.96 ± 2.3,>3,0.637,7.56,0.693
"COc1ccc(C=C2SC(=O)N(C(C)C)C2=O)cc1OC(=O)c1ccccc1F [Compound 29, 5-((3-Isopropyl-2,4-dioxothiazolidin-5-ylidene)methyl)-2-methoxyphenyl 2-Fluorobenzoate]",> 10,> 10,,,,
"COc1ccc(/C=C2\SC(=O)N(C(C)C)C2=O)cc1OC(=O)c1ccc(CCl)cc1 [Compound 30, 5-((3-Isopropyl-2,4-dioxothiazolidin-5-ylidene) Methyl)-2-methoxyphenyl 4-(Chloromethyl) Benzoate]",> 10,> 10,,,,
"COc1ccc(C=C2SC(=O)N(C(C)C)C2=O)cc1OC(=O)C(C)(C)CCl [Compound 31, 5-((3-Isopropyl-2,4-dioxothiazolidin-5-ylidene) Methyl)-2-methoxyphenyl 3-Chloro-2,2-dimethylpropanoate]",> 10,3.38 ± 2.15,>3,0.814,1.68,7.65
"COc1ccc(/C=C2\SC(=O)N(C(C)C)C2=O)cc1OC(=O)C12CC3CC(CC(C3)C1)C2 [Compound 32, 5-((3-Isopropyl-2,4-dioxothiazolidin-5-ylidene) Methyl)-2-methoxyphenyl (3r, 5r, 7r)-Adamantane-1-carboxylate]",> 10,0.83 ± 0.65,>12,0.093,0.287,2.12
"CCCC(=O)Oc1cc(C=C2SC(=O)N(C(C)C)C2=O)ccc1OC [Compound 33, 5-((3-Isopropyl-2,4-dioxothiazolidin-5-ylidene)methyl)-2-methoxyphenylbuty Rate]",> 10,> 10,,,,
